The target in this test is T1, HCV NS3 helicase (Hepatitis C virus genotype 1b, UniProt P26663).
T1 construct: full-length NS3 (1-631), purified at Array BioPharma
Briefly: HCV Helicase Prompt FRET Assay (Example A). It is filed as biochemical. The following applies: HCV NS3 helicase; tables do not say whether Example A or Example B assay; read-out: IC50 Activity. Summed up:
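Initial unwinding rates, monitored as FAM fluorescence gain (ex 485, em 535) over ~30 min at room temperature, gave IC50 via 4- or 5-parameter logistic fits. Reactions: 50 nM quenched duplex, 250 nM capture strand, 300 μM ATP, 5–6 nM NS3 1-631 after 5 min compound preincubation, MOPS pH 7.0 buffer, 2% DMSO.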

Each structure is given as a SMILES string.

T1 sequence (P26663 1027-1657): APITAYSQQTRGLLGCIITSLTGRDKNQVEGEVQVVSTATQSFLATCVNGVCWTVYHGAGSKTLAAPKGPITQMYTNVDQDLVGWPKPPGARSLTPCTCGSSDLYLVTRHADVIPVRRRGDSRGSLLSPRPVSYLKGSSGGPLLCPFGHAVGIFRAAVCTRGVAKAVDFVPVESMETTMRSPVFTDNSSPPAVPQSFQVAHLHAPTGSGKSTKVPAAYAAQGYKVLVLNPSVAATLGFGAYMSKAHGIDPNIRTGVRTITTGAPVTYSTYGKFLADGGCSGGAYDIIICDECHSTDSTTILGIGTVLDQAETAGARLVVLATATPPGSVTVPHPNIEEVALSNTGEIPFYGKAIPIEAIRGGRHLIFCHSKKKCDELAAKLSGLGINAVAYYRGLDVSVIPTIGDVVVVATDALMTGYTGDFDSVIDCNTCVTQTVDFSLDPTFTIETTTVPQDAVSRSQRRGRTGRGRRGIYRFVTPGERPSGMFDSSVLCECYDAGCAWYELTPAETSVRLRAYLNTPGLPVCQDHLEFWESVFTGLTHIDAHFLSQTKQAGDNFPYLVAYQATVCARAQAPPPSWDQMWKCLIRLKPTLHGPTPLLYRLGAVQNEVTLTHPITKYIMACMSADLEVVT

Consider `CC(C)NC(=O)c1c(CC(=O)O)c2cc(Br)ccc2n1Cc1ccc(C(C)C)cc1` [Example 433], for which the concentration for half-maximal inhibition (IC50) lay in the range of 10 to 50 µM.

As to `CC(C)c1ccc(Cn2c(C(=O)NC3CC3)c(CC(=O)O)c3cc(Br)ccc32)cc1` [Example 434], the IC50 lay within 10 to 50 µM.

`CC(C)c1ccc(Cn2c(C(=O)NC3CCCCC3)c(CC(=O)O)c3cc(Br)ccc32)cc1` [Example 435]: the IC50 was 10 to 50 µM.

`CC(C)c1ccc(Cn2c(C(=O)NC3CCN(C(=O)OC(C)(C)C)CC3)c(CC(=O)O)c3cc(Br)ccc32)cc1` [Example 436]: the IC50 is less than 10 µM.

Consider `CC(C)c1ccc(Cn2c(C(=O)NC3CCNCC3)c(CC(=O)O)c3cc(Br)ccc32)cc1` [Example 438], for which the IC50 lay in the range of 10 to 50 µM.

With `CC(C)c1ccc(Cn2c(C(=O)NCCc3ccccn3)c(CC(=O)O)c3ccccc32)cc1` [Example 439], the IC50 was in the range of 10 to 50 µM.

Regarding `CC(C)c1ccc(Cn2c(C(=O)NCc3ccccc3)c(CC(=O)O)c3cc(Br)ccc32)cc1` [Example 440], the concentration for half-maximal inhibition (IC50) fell in the range of 10 to 50 µM.

As to `CC(C)c1ccc(Cn2c(C(=O)NCc3ccc(-c4ccccc4)cc3)c(CC(=O)O)c3cc(Br)ccc32)cc1` [Example 441], the IC50 lay within 10 to 50 µM.

On to `CC(C)c1ccc(Cn2c(C(=O)NCc3ccc(S(N)(=O)=O)cc3)c(CC(=O)O)c3ccccc32)cc1` [Example 442], for which the IC50 lay in the range of 10 to 50 µM.

Take `CC(C)c1ccc(Cn2c(C(=O)NCc3ccc(S(C)(=O)=O)cc3)c(CC(=O)O)c3cc(Br)ccc32)cc1` [Example 443]: the IC50 is less than 10 µM.

Consider `Cc1ccc(CNC(=O)c2c(CC(=O)O)c3cc(Br)ccc3n2Cc2ccc(C(C)C)cc2)o1` [Example 444], for which the half-inhibitory concentration (IC50) was in the range of 10 to 50 µM.

On to `CC(C)c1ccc(Cn2c(C(=O)NCc3cccc(-c4ccccc4)c3)c(CC(=O)O)c3cc(Br)ccc32)cc1` [Example 445], for which the 50% inhibitory concentration (IC50) was less than 10 µM.

As for `CC(C)c1ccc(Cn2c(C(=O)NCc3ccc(Oc4ccccc4)cc3)c(CC(=O)O)c3cc(Br)ccc32)cc1` [Example 446], the half-inhibitory concentration (IC50) is less than 10 µM.

`CC(C)c1ccc(Cn2c(C(=O)NCc3ccc([N+](=O)[O-])cc3)c(CC(=O)O)c3ccccc32)cc1` [Example 447]: the 50% inhibitory concentration (IC50) was less than 10 µM.

Take `CC(C)c1ccc(Cn2c(C(=O)NCc3nc4ccccc4[nH]3)c(CC(=O)O)c3cc(Br)ccc32)cc1` [Example 448]: the 50% inhibitory concentration (IC50) is less than 10 µM.

Regarding `CC(C)c1ccc(Cn2c(C(=O)NCc3nc4ccccc4[nH]3)c(CC(=O)O)c3ccccc32)cc1` [Example 449], the concentration for half-maximal inhibition (IC50) was less than 10 µM.

As for `CC(C)c1ccc(Cn2c(C(=O)NCc3ccc(Cl)cc3)c(CC(=O)O)c3ccccc32)cc1` [Example 450], the concentration for half-maximal inhibition (IC50) is less than 10 µM.

For the molecule `CC(C)c1ccc(Cn2c(C(=O)NCc3cccc(Cl)c3)c(CC(=O)O)c3ccccc32)cc1` [Example 451], the IC50 was less than 10 µM.

On to `CC(C)c1ccc(Cn2c(C(=O)NCc3ccc(F)cc3)c(CC(=O)O)c3ccccc32)cc1` [Example 452], for which the concentration for half-maximal inhibition (IC50) was less than 10 µM.

Turning to `CC(C)c1ccc(Cn2c(C(=O)NCc3cccc(F)c3)c(CC(=O)O)c3ccccc32)cc1` [Example 453], the half-maximal inhibitory concentration (IC50) is less than 10 µM.

Regarding `CC(C)c1ccc(Cn2c(C(=O)NCc3ccc(OC(F)(F)F)cc3)c(CC(=O)O)c3ccccc32)cc1` [Example 454], the IC50 is less than 10 µM.

On to `CC(C)c1ccc(Cn2c(C(=O)NCc3ccc(C(F)(F)F)cc3)c(CC(=O)O)c3ccccc32)cc1` [Example 455], for which the concentration for half-maximal inhibition (IC50) was less than 10 µM.

Regarding `CC(C)c1ccc(Cn2c(C(=O)Nc3ccccc3)c(CC(=O)O)c3cc(Br)ccc32)cc1` [Example 456], the concentration for half-maximal inhibition (IC50) was less than 10 µM.

With `CC(C)c1ccc(Cn2c(C(=O)Nc3cccc(S(C)(=O)=O)c3)c(CC(=O)O)c3ccccc32)cc1` [Example 460], the IC50 is less than 10 µM.

Consider `CC(C)c1ccc(Cn2c(C(=O)Nc3ccc(S(C)(=O)=O)cc3)c(CC(=O)O)c3ccccc32)cc1` [Example 461], for which the 50% inhibitory concentration (IC50) was less than 10 µM.

In the case of `CC(C)c1ccc(Cn2c(C(=O)Nc3cccc(NS(C)(=O)=O)c3)c(CC(=O)O)c3ccccc32)cc1` [Example 462], the half-inhibitory concentration (IC50) is less than 10 µM.

As to `CC(C)c1ccc(Cn2c(C(=O)Nc3cccnc3)c(CC(=O)O)c3ccccc32)cc1` [Example 463], the concentration for half-maximal inhibition (IC50) lay within 10 to 50 µM.

For the molecule `O=C(O)c1cccc2c1c1ccccc1n2Cc1ccccc1` [Example 465], the IC50 was greater than 50 µM.

As for `O=C(O)c1cccc2[nH]c3ccccc3c12` [Example 467], the IC50 was greater than 50 µM.

Regarding `Cc1cc([N+](=O)[O-])ccc1-n1c2ccccc2c2c(C(=O)O)cccc21` [Example 470], the IC50 was greater than 50 µM.

For the molecule `Cc1cc([N+](=O)[O-])ccc1-n1c2ccc(Br)cc2c2c(C(=O)O)cccc21` [Example 471], the IC50 was in the range of 10 to 50 µM.

On to `O=C(O)Cc1cn(Cc2cccc(Oc3ccccc3F)c2)c2ccccc12` [Example 472], for which the IC50 is less than 10 µM.

With `O=C(O)Cc1cn(Cc2cccc(Oc3cccc(F)c3)c2)c2ccccc12` [Example 473], the IC50 was less than 10 µM.

With `O=C(O)Cc1cn(Cc2cccc(Oc3ccc(F)cc3)c2)c2ccccc12` [Example 474], the IC50 is less than 10 µM.

As to `O=C(O)Cc1cn(Cc2cccc(Oc3ccccc3Cl)c2)c2ccccc12` [Example 475], the IC50 is less than 10 µM.

For the molecule `O=C(O)Cc1cn(Cc2cccc(Oc3cccc(Cl)c3)c2)c2ccccc12` [Example 476], the IC50 was less than 10 µM.

On to `O=C(O)Cc1cn(Cc2cccc(Oc3ccc(Cl)cc3)c2)c2ccccc12` [Example 477], for which the IC50 is less than 10 µM.

In the case of `COc1ccccc1Oc1cccc(Cn2cc(CC(=O)O)c3ccccc32)c1` [Example 478], the IC50 was in the range of 10 to 50 µM.

Regarding `COc1cccc(Oc2cccc(Cn3cc(CC(=O)O)c4ccccc43)c2)c1` [Example 479], the IC50 fell in the range of 10 to 50 µM.

On to `COc1ccc(Oc2cccc(Cn3cc(CC(=O)O)c4ccccc43)c2)cc1` [Example 480], for which the IC50 was less than 10 µM.

`O=C(O)Cc1cn(Cc2cccc(Oc3ccccc3C(F)(F)F)c2)c2ccccc12` [Example 481]: the half-inhibitory concentration (IC50) is less than 10 µM.

Turning to `O=C(O)Cc1cn(Cc2cccc(Oc3cccc(C(F)(F)F)c3)c2)c2ccccc12` [Example 482], the IC50 is less than 10 µM.

Take `O=C(O)Cc1cn(Cc2cccc(Oc3ccc(C(F)(F)F)cc3)c2)c2ccccc12` [Example 483]: the concentration for half-maximal inhibition (IC50) was less than 10 µM.

With `O=C(O)Cc1cn(Cc2cccc(Oc3ccc(F)c(F)c3)c2)c2ccccc12` [Example 484], the IC50 is less than 10 µM.

On to `O=C(O)Cc1cn(Cc2cccc(Oc3cc(F)cc(F)c3)c2)c2ccccc12` [Example 485], for which the IC50 was 10 to 50 µM.

For `O=C(O)Cc1cn(Cc2cccc(Oc3ccc(Cl)c(Cl)c3)c2)c2ccccc12` [Example 486], the IC50 is less than 10 µM.

Consider `O=C(O)Cc1cn(Cc2cccc(Oc3cc(Cl)cc(Cl)c3)c2)c2ccccc12` [Example 487], for which the 50% inhibitory concentration (IC50) is less than 10 µM.

For `COc1cccc(Oc2cccc(Cn3cc(CC(=O)O)c4ccccc43)c2)c1OC` [Example 488], the IC50 was less than 10 µM.

With `COc1ccc(Oc2cccc(Cn3cc(CC(=O)O)c4ccccc43)c2)c(OC)c1` [Example 489], the half-maximal inhibitory concentration (IC50) was 10 to 50 µM.

Regarding `COc1ccc(OC)c(Oc2cccc(Cn3cc(CC(=O)O)c4ccccc43)c2)c1` [Example 490], the IC50 is 10 to 50 µM.

As for `COc1ccc(Oc2cccc(Cn3cc(CC(=O)O)c4ccccc43)c2)cc1OC` [Example 491], the IC50 fell in the range of 10 to 50 µM.

`O=C(O)Cc1cn(Cc2cccc(Oc3cc(C(F)(F)F)cc(C(F)(F)F)c3)c2)c2ccccc12` [Example 492]: the half-inhibitory concentration (IC50) was less than 10 µM.

Regarding `O=C(O)Cc1cn(Cc2ccc(Oc3ccccc3F)cc2)c2ccccc12` [Example 493], the half-inhibitory concentration (IC50) is less than 10 µM.

For the molecule `O=C(O)Cc1cn(Cc2ccc(Oc3ccc(F)cc3)cc2)c2ccccc12` [Example 495], the concentration for half-maximal inhibition (IC50) is less than 10 µM.

Turning to `O=C(O)Cc1cn(Cc2ccc(Oc3ccccc3Cl)cc2)c2ccccc12` [Example 496], the IC50 is less than 10 µM.

`O=C(O)Cc1cn(Cc2ccc(Oc3cccc(Cl)c3)cc2)c2ccccc12` [Example 497]: the IC50 was less than 10 µM.

For the molecule `O=C(O)Cc1cn(Cc2ccc(Oc3ccc(Cl)cc3)cc2)c2ccccc12` [Example 498], the half-maximal inhibitory concentration (IC50) was less than 10 µM.

As to `COc1cccc(Oc2ccc(Cn3cc(CC(=O)O)c4ccccc43)cc2)c1` [Example 499], the IC50 was in the range of 10 to 50 µM.

Take `COc1ccccc1Oc1ccc(Cn2cc(CC(=O)O)c3ccccc32)cc1` [Example 500]: the IC50 is less than 10 µM.

`COc1ccc(Oc2ccc(Cn3cc(CC(=O)O)c4ccccc43)cc2)cc1` [Example 501]: the half-inhibitory concentration (IC50) is less than 10 µM.

For `O=C(O)Cc1cn(Cc2ccc(Oc3ccccc3C(F)(F)F)cc2)c2ccccc12` [Example 502], the IC50 is less than 10 µM.

`O=C(O)Cc1cn(Cc2ccc(Oc3cccc(C(F)(F)F)c3)cc2)c2ccccc12` [Example 503]: the half-maximal inhibitory concentration (IC50) was less than 10 µM.

Regarding `O=C(O)Cc1cn(Cc2ccc(Oc3ccc(C(F)(F)F)cc3)cc2)c2ccccc12` [Example 504], the IC50 is less than 10 µM.

As for `O=C(O)Cc1cn(Cc2ccc(Oc3ccc(F)c(F)c3)cc2)c2ccccc12` [Example 505], the half-maximal inhibitory concentration (IC50) was less than 10 µM.

For `O=C(O)Cc1cn(Cc2ccc(Oc3cc(F)cc(F)c3)cc2)c2ccccc12` [Example 506], the half-maximal inhibitory concentration (IC50) was less than 10 µM.

For `O=C(O)Cc1cn(Cc2ccc(Oc3ccc(Cl)c(Cl)c3)cc2)c2ccccc12` [Example 507], the 50% inhibitory concentration (IC50) was less than 10 µM.

For the molecule `O=C(O)Cc1cn(Cc2ccc(Oc3cc(Cl)cc(Cl)c3)cc2)c2ccccc12` [Example 508], the IC50 is less than 10 µM.

For `COc1cccc(Oc2ccc(Cn3cc(CC(=O)O)c4ccccc43)cc2)c1OC` [Example 509], the IC50 was less than 10 µM.

Take `COc1ccc(OC)c(Oc2ccc(Cn3cc(CC(=O)O)c4ccccc43)cc2)c1` [Example 510]: the IC50 was less than 10 µM.

Turning to `COc1ccc(Oc2ccc(Cn3cc(CC(=O)O)c4ccccc43)cc2)cc1OC` [Example 511], the 50% inhibitory concentration (IC50) is less than 10 µM.
